Measurements reported in PubChem BioAssay AID687000 (Broad Institute, 2013).
Where “and” joins values, the source holds several entries; their conditions need not be identical. Equal values may be shown once. Calls of active or inactive are those of the source.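 How the source made its calls: active means fitted dose curve reaches 40% lysis signal rise at or below the highest valid concentration tested for that sample; inconclusive means flat fit between 30% and 70%, or poor curve fit; inactive means signal falls, stays flat within 30%, or no crossing.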

Tested on: C. neoformans lysis, adenylate kinase release luminescence, 4 h
Test: inducers of Cryptococcus neoformans cell lysis, dose response, AK release luminescence, cherry-picks (AID 687000)

**Q.** For `COC(=O)C1=C(C)N(Cc2ccc(Br)cc2)C(=S)NC1c1ccc(OC)cc1` (centres undefined), which AC40 is on record?
**A.** 1.93 µM and 1.57 µM

**Q.** For `CO[C@H]1CN(C)C(=O)c2cc(NC(=O)C3CC3)ccc2OC[C@@H](C)N(Cc2cncnc2)C[C@H]1C`, which AC40 is on record?
**A.** 12.9 µM

**Q.** For `Cc1cc(C)c(NC(=O)C2CCCN2C(=O)NC2CCCCC2)c(C)c1` (centres undefined), which AC40 is on record?
**A.** 10.4 µM

**Q.** `Cc1ccc(C(=O)NC(=S)Nc2ccccc2N2CCCC2)cc1[N+](=O)[O-]` was tested. Which AC40 did it give?
**A.** > 15 µM (inactive)

**Q.** `CC(C)CC#Cc1cnc2c(c1)C(=O)N([C@H](C)CO)C[C@H](C)[C@H](CN(C)C(=O)c1cccnc1)O2` was tested. Which AC40 did it give?
**A.** > 15 µM (inactive)

**Q.** For `COc1ccc(C(=O)NC(=S)Nc2ccccc2N2CCCCC2)cc1[N+](=O)[O-]`, which AC40 is on record?
**A.** 3.29 µM

**Q.** How did the AC40 turn out when `C[C@@H]1CN([C@H](C)CO)S(=O)(=O)c2ccc(C#C[C@@H](C)O)cc2O[C@@H]1CN(C)Cc1ccncc1` was run?
**A.** > 15 µM (inactive)

**Q.** For `COC(=O)C1=C(C)N(Cc2ccc(Br)cc2)C(=S)NC1c1cccc(Cl)c1` (centres undefined), which AC40 is on record?
**A.** 1.17 µM

**Q.** `CCc1ccc(C(=O)NC(=S)NCc2cccnc2)cc1` was tested. Which AC40 did it give?
**A.** 8.42 µM

**Q.** How did the AC40 turn out when `O=C(NC(=S)Nc1ccccc1N1CCCC1)c1ccccc1[N+](=O)[O-]` was run?
**A.** > 15 µM (inactive)

**Q.** With `CC(C)NC(=O)N[C@H]1CC[C@@H](CCNC(=O)C2CC2)O[C@H]1CO` as the compound, how does the AC40 read?
**A.** > 15 µM (inactive)

**Q.** For `C[C@H](CO)N1C[C@H](C)[C@H](CN(C)Cc2ccc(-c3ccccc3)cc2)Oc2c(NC(=O)c3ccncc3)cccc2C1=O`, which AC40 is on record?
**A.** > 15 µM (inactive)

**Q.** Which AC40 does the source give for `O=C(NCCN1CCCCC1)[C@H]1N[C@H]2c3ccc(-c4ccncc4)c(=O)n3C[C@H]2[C@@H]1CO` here?
**A.** 12.7 µM

**Q.** How did the AC40 turn out when `COC(=O)C1=C(C)N(Cc2ccc(F)cc2)C(=S)NC1c1ccc(F)cc1` (centres undefined) was run?
**A.** 6.96 µM

**Q.** How did the AC40 turn out when `C[C@H](CO)N1C[C@H](C)[C@H](CN(C)C(=O)Nc2cccc3ccccc23)Oc2ccc(NC(=O)Cc3ccccc3)cc2CC1=O` was run?
**A.** > 15 µM (inactive)

**Q.** `O=C(N[C@H]1CC[C@H](CCn2cc(-c3ccccn3)nn2)O[C@H]1CO)c1ccc(F)cc1` was tested. Which AC40 did it give?
**A.** > 15 µM (inactive)

**Q.** With `S=C(NCc1ccccc1)NCC1COc2ccccc2O1` (centres undefined) as the compound, how does the AC40 read?
**A.** 9.32 µM

**Q.** Which AC40 does the source give for `C[C@H](CO)N1C[C@H](C)[C@H](CN(C)Cc2ccccc2)OCCCC[C@H](C)Oc2ccc(NS(=O)(=O)c3cccs3)cc2C1=O` here?
**A.** > 15 µM (inactive)

**Q.** With `S=C(Nc1ccccc1Oc1ccccc1)Nc1cccc(Cl)c1Cl` as the compound, how does the AC40 read?
**A.** > 15 µM (inactive)

**Q.** With `C[C@@H]1CN([C@@H](C)CO)C(=O)Cc2cc(NC(=O)c3ccncc3)ccc2O[C@H]1CN(C)Cc1ccncc1` as the compound, how does the AC40 read?
**A.** > 15 µM (inactive)

**Q.** `COc1ccccc1C#Cc1ccc2c(c1)O[C@H](CN(C)C(C)=O)[C@H](C)CN([C@@H](C)CO)S2(=O)=O` was tested. Which AC40 did it give?
**A.** > 15 µM (inactive)

**Q.** With `C[C@@H]1CN([C@@H](C)CO)C(=O)c2cc(NC(=O)C3CC3)ccc2O[C@H]1CN(C)CC1CCCCC1` as the compound, how does the AC40 read?
**A.** > 15 µM (inactive)

**Q.** Which AC40 does the source give for `CCc1ccc(C(C)NC(=S)NCc2ccc(F)cc2)cc1` (centres undefined) here?
**A.** 0.511 µM

**Q.** How did the AC40 turn out when `CCCNC(=O)C[C@@H]1CC[C@@H]2[C@H](COc3ccc(NC(=O)CCC)cc3C(=O)N2C)O1` was run?
**A.** > 15 µM (inactive)

**Q.** For `C[C@H]1CN([C@@H](C)CO)C(=O)c2cc(-c3ccc(F)cc3)cnc2O[C@@H]1CN(C)CC1CCCCC1`, which AC40 is on record?
**A.** > 15 µM (inactive)

**Q.** How did the AC40 turn out when `CCN1C(=S)N[C@@H](c2ccccc2)C(C(=O)OC)=C1C` was run?
**A.** > 15 µM (inactive)

**Q.** With `C[C@H](CO)N1C[C@H](C)[C@H](CN(C)C(=O)Nc2ccc3c(c2)OCO3)Oc2ncc(C#CC(C)(C)O)cc2C1=O` as the compound, how does the AC40 read?
**A.** > 15 µM (inactive)

**Q.** `CC(C)c1ccccc1NC(=S)NN(Cc1ccccc1)c1ccccc1` was tested. Which AC40 did it give?
**A.** > 15 µM (inactive)

**Q.** `C[C@@H]1CN([C@H](C)CO)C(=O)Cc2cc(NC(=O)NC3CCCCC3)ccc2O[C@@H]1CN(C)Cc1ccccc1` was tested. Which AC40 did it give?
**A.** > 15 µM (inactive)

**Q.** `Cc1cc(Cl)ccc1NC(=S)NCc1ccc(F)cc1` was tested. Which AC40 did it give?
**A.** 2.25 µM

**Q.** Which AC40 does the source give for `C[C@H]1CN([C@@H](C)CO)C(=O)c2ccccc2-c2ccccc2CO[C@H]1CN(C)S(=O)(=O)c1cccc(C#N)c1` here?
**A.** > 15 µM (inactive)

**Q.** How did the AC40 turn out when `O=C(NCCc1ccccc1)[C@@H]1[C@@H](CO)[C@@H]2Cn3c(cccc3=O)[C@H]1N2C(=O)C1CCC1` was run?
**A.** > 7.5 µM (inactive)

**Q.** `Cc1noc(C)c1S(=O)(=O)Nc1ccc2c(c1)C(=O)N([C@@H](C)CO)C[C@@H](C)[C@@H](CN(C)Cc1ccccc1)OCCCC[C@H](C)O2` was tested. Which AC40 did it give?
**A.** > 15 µM (inactive)

**Q.** How did the AC40 turn out when `COc1ccc(C(=O)NC(=S)Nc2cccc(Cl)c2N2CCOCC2)cc1[N+](=O)[O-]` was run?
**A.** > 15 µM (inactive)

**Q.** Which AC40 does the source give for `COc1cc(OC)c(N(C)C(=O)c2cn(C)c(=O)c3cc(OC)c(OC)cc23)cc1Cl` here?
**A.** > 15 µM (inactive)

**Q.** How did the AC40 turn out when `CCC(=O)N(C)C[C@@H]1Oc2cc(C#CC(C)(C)O)ccc2S(=O)(=O)N([C@H](C)CO)C[C@H]1C` was run?
**A.** > 15 µM (inactive)

**Q.** For `COc1cccc(S(=O)(=O)Nc2ccc3c(c2)[C@H]2C[C@H](CC(=O)N(C)C)O[C@@H](CO)[C@H]2O3)c1`, which AC40 is on record?
**A.** > 15 µM (inactive)

**Q.** For `COCCN1C(=S)N[C@@H](c2ccccc2)C(C(=O)OC)=C1C`, which AC40 is on record?
**A.** 13.5 µM

**Q.** With `C[C@H](CO)N1C[C@H](C)[C@@H](CN(C)CC2CCOCC2)Oc2ncc(C#Cc3ccc(F)cc3)cc2C1=O` as the compound, how does the AC40 read?
**A.** > 15 µM (inactive)

**Q.** For `CO[C@@H]1CN(C)C(=O)c2ccc(NC(C)=O)cc2OC[C@@H](C)N(C(=O)Cc2cccnc2)C[C@H]1C`, which AC40 is on record?
**A.** > 13.5 µM (inactive)

**Q.** How did the AC40 turn out when `S=C(Nc1cccc(Cl)c1)Nc1ccccc1Oc1ccccc1` was run?
**A.** > 15 µM (inactive)

**Q.** For `COC(=O)C1=C(C)N(Cc2ccc(Cl)cc2)C(=S)NC1c1ccc(F)cc1` (centres undefined), which AC40 is on record?
**A.** 2.23 µM and 3.73 µM

**Q.** `Cc1cc(C)c(NC(=O)C2CCCN2CCC(C)C)c(C)c1` (centres undefined) was tested. Which AC40 did it give?
**A.** > 15 µM (inactive)

**Q.** For `S=C(Nc1ccccc1)Nc1cc(Cl)ccc1Oc1ccccc1`, which AC40 is on record?
**A.** > 7.5 µM (inactive)
